# Tested on: Trypanosoma brucei
# Assay: Treatment of Trypanosoma Brucei-infected mice
# Format: in vivo, T. brucei (EATRO 110) in mice (CD-1, males)
# Settings: for Mice cured/Total: cured = surviving 30 days after all controls dead
# Text: Illustrative of the effects of a compound of this invention (i.e., cis-5'-deoxy-5'-(4-amino-2-butenyl )methylaminoadenosine, identified below as MDL Compound) for the treatment of African Trypanosomiasis is an assay using Trypanosoma brucei-infected mice, as follows:
# (a) includes those animals that died.
# (b) MDL Compound was given intraperitoneally three times per day (8:30
# a.m., 12:30 p.m. and 4:30 p.m,) for three consecutive days.
# (c) Eflornithine was given in drinking water for three days.
# Mice (20-22 g, CD-1, males) were infected with 2.5×10^5 T. brucei (EATRO 110) by intraperitoneal injection. Drug treatment commenced 24 h after infection. Mice surviving for 30 days after all controls were dead were considered cured. This method for drug testing is that of Bacchi et al. (1980) Science 210: 332-334, and successfully predicted the utility of eflornithine in human trypanosomiasis.
SMILES,Mice cured/Total (2% in drinking water for three days),"Mice cured/Total (dose 10 (unit not given), intraperitoneally three times per day for three consecutive days)","Mice cured/Total (dose 20 (unit not given), intraperitoneally three times per day for three consecutive days)","Mice cured/Total (dose 50 (unit not given), intraperitoneally three times per day for three consecutive days)","Days of Survival (includes those animals that died) (dose 50 (unit not given), intraperitoneally three times per day for three consecutive days, per animal) [days]"
"NCCCC(N)(C(=O)O)C(F)F (centres unmarked) [Eflornithine, reference compound]",3/5,–,–,–,–
"CN(C/C=C\CN)C[C@H]1O[C@@H](n2cnc3c(N)ncnc32)[C@H](O)[C@@H]1O [MDL Compound, CIS-5'-DEOXY-5'(4-AMINO-2-BUTENYL)METHYLAMINOADENOSINE]",–,2/5,3/5,4/5,12
